Experimental data reported in patent US8815891B2, “Tricyclic derivative or pharmaceutically acceptable salts thereof, preparation method thereof, and pharmaceutical composition containing the same” (Je Il Pharmaceutical Co., Ltd., priority 2008, dated 2014).
Where a name gives a salt, the structure may show the parent alone. Read-outs that look alike come from different tables or passages of the source.

Tests used:
SK-OV-3 Cell line = test: Cell growth inhibition of cancer cell lines (SRB assay), SK-OV-3; format: cell-based; settings: for SN-38 PF50 / Temozolomide PF50: 2 μM compound; for GI50: Homo sapiens, 72 hours
Protocol: (§1) The tests on cell growth inhibitory activity were performed with respect to A549 (US, ATCC), SK-OV-3 (Korea Research Institute of Chemical Technology; KRICT), HT-29 (US, ATCC), MCF-7 cell (US, ATCC), using Sulforhodamin-B <SRB> Assay (1989, US National Cancer Institute (NCI)) which was developed to measure the in vitro anti-cancer activity of the drug. […] The samples of the compounds of the Examples according to the present invention were used for the tests, and before the tests, the samples were dissolved in dimethylsulfoxide and diluted with the culture medium (RPMI 1640) to be used. The final concentration of the sample was varied in the range of 0.3˜100 μM. After the culture medium was removed from the 96 well plates, the diluted sample solution was added by 100 μl, and cultured in 37° C., 5% CO2 culture medium for 72 hours. The time zero (Tz) plates were collected at the time point of adding the sample. Upon completing the culture, the medium was removed from each well along with Tz plate, then cold 10% trichloroacetic acid (TCA) was added by 100 μl per well. The wells were left at 4° C. for 1 hour, so that the cells were fixed into the bottom of the plates. After the cells were fixed, the plates were rinsed with water five to six times to remove the remaining trichloroacetic acid solution, and moisture was completely dried at room temperature. The cells were dyed for 30 minutes by adding the dye solution in which 0.4% sulforhodamine-B was dissolved in 1% acetic acid solution, by 100 μl per dried wells. The above was rinsed again with 1% acetic acid solution five to six times to ensure that sulforhodamine-B which had not attached to the cells was removed. The plates were again dried at room temperature. 100 μl of 10 mM tris-buffer was then added to dissolve the dye, and the optical density (OD) at 520 nm was measured with the microplate reader. GI50 of the sample regarding cancer cell was calculated as explained below. Time zero (Tz), control value (C) and test value (T) were obtained, in which Tz corresponds to OD value of time at which the sample is applied and culture is started, C corresponds to OD value of the well which is cultured without treatment with the sample, and T corresponds to OD value of the well which is treated with the sample and then cultured. The degree of cell growth inhibition of the sample was measured using: If […] [Mathematical Formula 1]
(§2) Further, the ability of Examples 2, 42, 49, 52, 72, 74, 101 to increase growth inhibition effect of temozolomide and SN-38 at 2 μM was determined.

PARP-1 enzyme [1] = target: PARP-1 enzyme (Cricetulus griseus (Chinese hamster) (Cricetulus barabensis griseus), UniProt Q9R152); test: Intracellular PARP inhibitory activity (NAD(P)H released by MMS-treated CHO-K1 cells); format: cell-based
Protocol: In order to verify the ability of the compounds of the present invention to inhibit the PARP-1 enzyme activity, the amount of NAD(P)H accumulated on cell culture medium was measured.
The Chinese hamster ovary cells (CHO-K1) were cultured in RPMI1640 culture medium containing 10% fetal bovine serum (FBS). The cultured CHO-K1 cells were seeded into 96 well plate by 2.9×10^3 cells/well, and cultured for 16 hours under culture condition of 37° C., 5% CO2. After the culture, the cells were treated with the compounds of the Examples at varying concentrations, and cultured at 37° C. for 2 hours. […] The amount of […] released to the culture medium 3, 4, 5 hours after the treatment with MMS was quantified at 450 nm using Wallac EnVision™ (PerkinElmer Oy, Turku, Finland). The transference numbers of the compounds at varying concentrations according to the present invention are the average values obtained from four wells, and the results were calculated using regression analysis.
The Chinese hamster ovary cells (CHO-K1) were treated with the compounds at varying concentration according to the present invention, and the amount of NAD(P)H released into the culture medium 4 hours after the MMS treatment was quantified.

PARP-1 enzyme [2] = target: PARP-1 enzyme (Homo sapiens (Human), UniProt P09874); test: Poly(ADP-ribose)polymerase [PARP-1] enzyme inhibitory activity (Trevigen PARP Assay kit); format: biochemical; settings: read-out: PARP-1 Inhibitory activity IC50
Procedure, shortened: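 On histone-coated plates, PARP-1 (0.12 unit/well) reacted with compound for 30 min at 25 °C in a 2× cocktail of 1.95 mM NAD+, 50 μM biotinylated NAD+ and activated DNA (Tris pH 8.0, 25 mM MgCl2). Biotin-ribosylated histone was detected with streptavidin-HRP and TACS-Sapphire substrate, stopped with HCl and read at 450 nm.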

HT-29 Cell line = test: Cell growth inhibition of cancer cell lines (SRB assay), HT-29; format: cell-based; settings: for SN-38 PF50 / Temozolomide PF50: 2 μM compound; for GI50: Homo sapiens, 72 hours
Protocol: as §1, §2

MCF-7 Cell line = test: Cell growth inhibition of cancer cell lines (SRB assay), MCF-7; format: cell-based; settings: for SN-38 PF50 / Temozolomide PF50: 2 μM compound; for GI50: Homo sapiens, MCF7, 72 hours
Protocol: as §1, §2

A549 cell line = test: Cell growth inhibition of cancer cell lines (SRB assay), A549; format: cell-based; settings: for SN-38 PF50 / Temozolomide PF50: 2 μM compound; for SN-38 PF50: GI50 SN-38 alone / GI50 with compound; for Temozolomide PF50: GI50 temozolomide alone / GI50 with compound; for GI50: Homo sapiens, 72 hours
Protocol: as §1, §2

[3] = PARP-1 enzyme, histone ribosylation, 450 nm

Chain of PARP-1 enzyme (Cricetulus griseus (Chinese hamster) (Cricetulus barabensis griseus), UniProt Q9R152) (Q9R152 whole entry): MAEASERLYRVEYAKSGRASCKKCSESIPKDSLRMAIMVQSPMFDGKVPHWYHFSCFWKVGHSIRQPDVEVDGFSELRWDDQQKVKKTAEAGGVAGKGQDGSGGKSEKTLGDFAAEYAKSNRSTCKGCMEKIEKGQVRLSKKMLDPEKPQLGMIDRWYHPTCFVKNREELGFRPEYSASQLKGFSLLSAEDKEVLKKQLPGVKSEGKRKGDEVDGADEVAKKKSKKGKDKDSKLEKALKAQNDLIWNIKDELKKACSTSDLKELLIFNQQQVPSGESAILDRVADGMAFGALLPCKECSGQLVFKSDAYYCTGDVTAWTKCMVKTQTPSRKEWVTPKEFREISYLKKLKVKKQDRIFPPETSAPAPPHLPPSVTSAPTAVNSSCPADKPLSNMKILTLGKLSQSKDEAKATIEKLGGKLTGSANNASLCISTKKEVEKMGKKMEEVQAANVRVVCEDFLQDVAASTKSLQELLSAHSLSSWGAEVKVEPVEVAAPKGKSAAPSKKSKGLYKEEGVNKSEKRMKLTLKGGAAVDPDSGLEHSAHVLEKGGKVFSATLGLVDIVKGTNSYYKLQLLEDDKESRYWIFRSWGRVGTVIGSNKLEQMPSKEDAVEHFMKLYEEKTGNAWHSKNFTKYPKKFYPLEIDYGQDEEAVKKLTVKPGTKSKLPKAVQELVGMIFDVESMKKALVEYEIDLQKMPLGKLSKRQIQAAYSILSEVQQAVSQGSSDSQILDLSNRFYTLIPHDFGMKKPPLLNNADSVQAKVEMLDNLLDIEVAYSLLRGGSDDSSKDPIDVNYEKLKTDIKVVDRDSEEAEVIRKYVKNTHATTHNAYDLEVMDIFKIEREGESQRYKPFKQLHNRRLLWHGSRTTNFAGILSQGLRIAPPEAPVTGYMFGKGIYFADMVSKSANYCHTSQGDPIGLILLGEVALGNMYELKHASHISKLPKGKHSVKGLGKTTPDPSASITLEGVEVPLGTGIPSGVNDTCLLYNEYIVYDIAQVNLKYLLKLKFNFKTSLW
Chain of PARP-1 enzyme (Homo sapiens (Human), UniProt P09874) (P09874 whole entry): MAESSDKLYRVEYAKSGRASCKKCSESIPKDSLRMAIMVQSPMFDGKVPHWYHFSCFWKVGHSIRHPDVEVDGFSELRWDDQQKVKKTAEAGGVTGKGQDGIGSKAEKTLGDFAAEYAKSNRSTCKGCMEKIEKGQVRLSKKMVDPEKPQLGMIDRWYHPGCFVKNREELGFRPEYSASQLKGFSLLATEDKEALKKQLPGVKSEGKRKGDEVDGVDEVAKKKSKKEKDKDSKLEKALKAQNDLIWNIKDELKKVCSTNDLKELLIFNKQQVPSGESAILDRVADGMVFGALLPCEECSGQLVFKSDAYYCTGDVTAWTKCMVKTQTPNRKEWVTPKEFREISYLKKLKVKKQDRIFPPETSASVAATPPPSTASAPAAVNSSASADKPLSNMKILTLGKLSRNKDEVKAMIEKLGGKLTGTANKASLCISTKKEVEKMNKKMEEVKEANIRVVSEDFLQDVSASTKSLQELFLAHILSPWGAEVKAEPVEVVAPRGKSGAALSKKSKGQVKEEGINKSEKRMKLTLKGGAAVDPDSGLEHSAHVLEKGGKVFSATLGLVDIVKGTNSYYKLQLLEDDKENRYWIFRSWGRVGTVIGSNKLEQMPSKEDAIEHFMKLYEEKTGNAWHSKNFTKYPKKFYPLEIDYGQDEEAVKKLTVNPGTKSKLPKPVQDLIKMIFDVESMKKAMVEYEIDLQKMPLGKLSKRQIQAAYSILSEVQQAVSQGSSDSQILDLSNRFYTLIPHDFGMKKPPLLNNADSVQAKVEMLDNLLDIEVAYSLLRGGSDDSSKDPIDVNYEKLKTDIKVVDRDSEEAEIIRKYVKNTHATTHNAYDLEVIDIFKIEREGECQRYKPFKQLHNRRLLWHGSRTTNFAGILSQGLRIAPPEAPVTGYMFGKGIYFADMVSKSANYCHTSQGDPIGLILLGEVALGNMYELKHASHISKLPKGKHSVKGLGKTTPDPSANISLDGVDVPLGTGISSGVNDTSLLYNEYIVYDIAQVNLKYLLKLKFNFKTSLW

Structure (SMILES)	SN-38 PF50 (SK-OV-3 Cell line)	Temozolomide PF50 (SK-OV-3 Cell line)	GI50 (SK-OV-3 Cell line) [µM]	IC50 (PARP-1 enzyme [1]) [µM]	IC50 (PARP-1 enzyme [2]; [3]) [µM]	SN-38 PF50 (HT-29 Cell line)	Temozolomide PF50 (HT-29 Cell line)	GI50 (HT-29 Cell line) [µM]	SN-38 PF50 (MCF-7 Cell line)	Temozolomide PF50 (MCF-7 Cell line)	GI50 (MCF-7 Cell line) [µM]	SN-38 PF50 (A549 cell line)	Temozolomide PF50 (A549 cell line)	GI50 (A549 cell line) [µM]	IC50 (PARP-1 enzyme [2]) [µM]
COc1cccc2[nH]c(=O)c3c(c12)NCCC3.Cl [Example 2, 10-Methoxy-1,2,3,4-tetrahydrobenzo[h][1,6]naphthyridine-5(6H)-one hydrochloride]	1.2	>3.2	50	0.92	0.6	1.4	>1.5	70	1.4	1.7	51	2.2	2.4	59	–
CCN(CC)Cc1ccc2c3c(c(=O)[nH]c2c1)CCCN3 [Example 42, 8-[(Diethylamino)methyl]-1,2,3,4-tetrahydrobenzo[h][1,6]naphthyridine-5(6H)-one dihydrochloride]	1.6	>2.1	> 100	0.85	–	2.1	>1.4	81	1.6	1.6	75	1.6	2.3	> 100	0.22
COc1cc(CN(C)C)cc2[nH]c(=O)c3c(c12)NCCC3 [Example 72, 8-[(Dimethylamino)methyl]-10-methoxy-1,2,3,4-tetrahydrobenzo[h][1,6]naphthyridine-5(6H)-one dihydrochloride]	1.8	>10.2	> 100	0.09	–	2.2	>5.2	> 100	2.6	1.7	54	3.8	3.4	> 100	0.08
CCOc1cc(CN2CCOCC2)cc2[nH]c(=O)c3c(c12)NCCC3 [Example 101, 10-Ethoxy-8-(morpholinomethyl)-1,2,3,4-tetrahydrobenzo[h][1,6]naphthyridine-5(6H)-one dihydrochloride]	2.8	>3.9	19	1.94	0.56	4.0	>1.9	20	3.0	5.9	11	2.6	3.2	55	–
